Test results taken from patent US20120148685A1, “METHODS AND COMPOSITIONS FOR TREATING INSULIN RESISTANCE, DIABETES MELLITUS TYPE 2, METABOLIC SYNDROME AND RELATED DISORDERS” (Engergy4Life AG, priority 2009, published 2012).
Marks after values point to notes of the source that are not given here. Blank lines part the entries; values can stand above or below the compound they belong to.

Experiments:
[1] = test system: sterol regulatory element-binding protein (SREBP)-1c; assay: Relative mRNA concentration in liver, lipogenesis: SREBP-1c; assay type: in vivo, Zucker rats
Protocol: (§1) All rats were kept individually in Macrolon cages in a room maintained at 22±1° C. and 50-60% relative humidity with lighting from 06.00 to 18.00 hours. All experimental procedures described followed established guidelines for the care and handling of laboratory animals and were approved by the local Animal Care and Use Committee.
(§2) Five different diets were used differing in their supplementation. […] Feed was administered ad libitum, and feed intake was recorded weekly. Experimental diets were fed for 4 weeks. Water was available ad libitum from nipple drinkers during the whole experiment.

[2] = test system: liver-type carnitine-palmitoyltransferase (L-CPT) I; assay: Relative mRNA concentration in liver, fatty acid oxidation: L-CPT I; assay type: in vivo; settings: liver of obese Zucker rats, diet 4 wk, obese control = 1.00, means ± SD (n = 12)
Protocol: as §1, §2

[3] = test system: stearoyl-CoA desaturase (SCD); assay: Relative mRNA concentration in liver, lipogenesis: SCD; assay type: in vivo; settings: liver of obese Zucker rats, diet 4 wk, obese control = 1.00, means ± SD (n = 12)
Protocol: as §1, §2

[4] = test system: high molecular weight adiponectin; assay: High molecular weight adiponectin in plasma (rat ELISA); assay type: in vivo; settings: obese (fa/fa) Zucker rats, supplemented diet 4 wk, fasted, means ± SD (n = 12)
Protocol: (§3) A total of 60 male, 8-10 week old, obese (fa/fa) Zucker rats (Crl:ZUC-Leprfa; Charles River, France) with an initial body weight of 358±24 (mean±SD) g were randomly assigned to five groups of twelve rats each. In addition, 12 male, 8-10 week old, heterozygous lean (fa/+) Zucker rats with an initial body weight of 271±10 g were used as a lean control group. All rats were kept individually in Macrolon cages in a room maintained at 22±1° C. and 50-60% relative humidity with lighting from 06.00 to 18.00 hours. All experimental procedures described followed established guidelines for the care and handling of laboratory animals and were approved by the local Animal Care and Use Committee.
(§4) The rats were fed semi-purified diets which were composed according to the recommendations of the American Institute of Nutrition (AIN)-93G. Five different diets were used differing in their supplementation. […] Diets were prepared by mixing the dry components and subsequent pelleting with a standard pelleting device (Kahl Laborpressanlage Typ 14-175; Reinbek, Germany). Feed was administered ad libitum, and feed intake was recorded weekly. Experimental diets were fed for 4 weeks. Water was available ad libitum from nipple drinkers during the whole experiment.
(§5) The rats were decapitated under CO2 anesthesia in the fasted state. Whole blood was collected into EDTA polyethylene tubes (Sarstedt, Nürnbrecht, Germany). Plasma was separated from whole blood by centrifugation (1,100×g; 10 min) at 4° C. Lipoproteins [VLDL, LDL and high-density lipoproteins (HDL)] were separated by step-wise ultracentrifugation (900,000×g, 1.5 h, 4° C.; Mikro-Ultrazentrifuge, Sorvall Products, Bad Homburg, Germany). All samples were stored at −20° C. pending analysis.
(§6) Concentrations of leptin in plasma was determined by rat ELISA kits from BioVendor (Heidelberg, Germany). Concentration of high molecular weight adiponectin was determined by a rat ELISA kit from Shibayagi (Ishihara, Shibukawa, Gunma, Japan).

[5] = Fasting glucose concentration in plasma; assay type: in vivo, Zucker rats; settings: for Glucose in plasma: obese (fa/fa) Zucker rats, supplemented diet 4 wk, fasted, means ± SD (n = 12); for Fasting glucose concentration compared with the obese control group: within the obese rats, in words, P<0.05 where different
Protocol: as §3, §4, §5
Glucose concentration in plasma was determined by an enzymatic reagent kit from Analyticon Biotechnologies (Lichtenfels, Germany).

[6] = test system: acyl-CoA oxidase (ACO); assay: Relative mRNA concentration in liver, fatty acid oxidation: ACO; assay type: in vivo; settings: liver of obese Zucker rats, diet 4 wk, obese control = 1.00, means ± SD (n = 12)
Protocol: as §1, §2

[7] = test system: fatty acid synthase (FAS); assay: Relative mRNA concentration in liver, lipogenesis: FAS; assay type: in vivo, Zucker rats
Protocol: as §1, §2

[8] = test system: lipoprotein lipase (LPL); assay: Relative mRNA concentration in liver, fatty acid uptake: LPL; assay type: in vivo; settings: liver of obese Zucker rats, diet 4 wk, obese control = 1.00, means ± SD (n = 12)
Protocol: as §1, §2

[9] = Plasma and lipoprotein lipid concentrations (triacylglycerol, cholesterol; enzymatic kits); assay type: in vivo, Zucker rats; settings: for Cholesterol, HDL / Cholesterol, Plasma / Cholesterol, VLDL + LDL / Triacylglycerols, Plasma / Triacylglycerols, VLDL + LDL: obese (fa/fa) Zucker rats, supplemented diet 4 wk, fasted, means ± SD (n = 12); for TAG concentration in plasma compared with the niacin+DHA+carnitine group / TAG concentrations in plasma compared with the control group / Cholesterol in the VLDL+LDL fraction compared with the obese control group / TAG concentration in the VLDL+LDL fraction compared with the obese control group: within the obese rats; for TAG concentration in plasma compared with the niacin+DHA+carnitine group / TAG concentrations in plasma compared with the control group: P<0.05; for Cholesterol in the VLDL+LDL fraction compared with the obese control group / TAG concentration in the VLDL+LDL fraction compared with the obese control group: P<0.05 where different
Protocol: as §3, §4, §5
Triacylglycerol and cholesterol concentrations in plasma and lipoproteins were determined using enzymatic reagent kits from Biocon (Vöhl-Marienhagen, Germany).

[10] = test system: scavenger receptor CD36; assay: Relative mRNA concentration in liver, fatty acid uptake: CD36; assay type: in vivo; settings: liver of obese Zucker rats, diet 4 wk, obese control = 1.00, means ± SD (n = 12)
Protocol: as §1, §2

[11] = Non-esterified fatty acids (NEFA) in plasma; assay type: in vivo, Zucker rats; settings: for NEFA in plasma: obese (fa/fa) Zucker rats, supplemented diet 4 wk, fasted, means ± SD (n = 12); for NEFA concentrations in plasma compared with the obese control group: within the obese rats, in words, P<0.05
Protocol: as §3, §4, §5
NEFA concentrations in plasma were determined using the NEFA kit from Wako Chemicals (Neuss, Germany).

[12] = Feed intake, body weight development and feed conversion ratio of Zucker rats fed supplemented diets; assay type: in vivo
Excerpt: Zucker rats are an established model of human early-onset, hyperplastic-hypertrophic obesity and insulin resistance as well as human non-insulin dependent diabetes mellitus.
as §3, §4

[13] = test system: fatty acid transport protein (FATP); assay: Relative mRNA concentration in liver, fatty acid uptake: FATP; assay type: in vivo; settings: liver of obese Zucker rats, diet 4 wk, obese control = 1.00, means ± SD (n = 12)
Protocol: as §1, §2

[14] = test system: fatty acid binding protein (FABP); assay: Relative mRNA concentration in liver, fatty acid uptake: FABP; assay type: in vivo, Zucker rats
Protocol: as §1, §2

[15] = Organ weights of the rats; assay type: in vivo; settings: obese (fa/fa) Zucker rats, supplemented diet fed 4 wk, means ± SD (n = 12)
Protocol: as §1, §2

[16] = test system: leptin; assay: Leptin in plasma (rat ELISA); assay type: in vivo, Zucker rats; settings: for Leptin in plasma: obese (fa/fa) Zucker rats, supplemented diet 4 wk, fasted, means ± SD (n = 12); for Leptin concentrations in plasma compared with the obese control group: within the obese rats, in words, P<0.05 where different
Protocol: as §3, §4, §5, §6

[17] = liver of obese Zucker rats, diet 4 wk, obese control = 1.00, means ± SD (n = 12)
[18] = within the obese rats, in words, P<0.05 where different
[19] = obese (fa/fa) Zucker rats, supplemented diet fed 4 wk, means ± SD (n = 12)

Relative mRNA concentration of SREBP-1c in the liver compared with the obese control group [1, 18]: did not differ
Relative mRNA concentration of FABP in the liver compared with the other groups ([14]; in words, P<0.05 where different): did not differ
SMILES: C[N+](C)(C)CC(O)CC(=O)[O-] (centres unmarked) [carnitine]
Relative mRNA concentration, SREBP-1c [1, 17]: 0.78 ± 0.31 ^ab
Relative mRNA concentration, L-CPT I [2]: 1.15 ± 0.41
Relative mRNA concentration, SCD [3]: 0.99 ± 0.33 ^a
Adiponectin in plasma [4]: 122 ± 12 ng/mL
Glucose in plasma [5]: 7.86 ± 0.75 ^ab mmol/L
Fasting glucose concentration compared with the obese control group [5]: did not differ
Relative mRNA concentration, ACO [6]: 1.15 ± 0.37
Gene expression of fatty acid synthase ([7]; conclusions, liver of obese diabetic rats, in words): lowered
Relative mRNA concentration, FAS [7, 17]: 0.53 ± 0.49 ^b
Relative mRNA concentration of FAS in the liver compared with the obese control group [7, 18]: lower
Relative mRNA concentration, LPL [8]: 1.04 ± 0.20
Cholesterol, HDL [9]: 4.64 ± 0.50 ^a mmol/L
Cholesterol, Plasma [9]: 7.68 ± 0.92 ^ab mmol/L
Cholesterol, VLDL + LDL [9]: 3.12 ± 0.39 ^b mmol/L
Triacylglycerols, Plasma [9]: 4.41 ± 0.85 ^c mmol/L
Triacylglycerols, VLDL + LDL [9]: 2.65 ± 0.57 ^b mmol/L
TAG concentration in plasma compared with the niacin+DHA+carnitine group ([9]; in words): lower
TAG concentrations in plasma compared with the control group ([9]; in words): lower
Cholesterol in the VLDL+LDL fraction compared with the obese control group ([9]; in words): did not differ
TAG concentration in the VLDL+LDL fraction compared with the obese control group ([9]; in words): did not differ
Relative mRNA concentration, CD36 [10]: 0.87 ± 0.22 ^a
NEFA in plasma [11]: 2.41 ± 0.57 ^b mmol/L
NEFA concentrations in plasma compared with the obese control group [11]: lower
Daily body weight gain [12, 19]: 4.85 ± 0.48 ^a g
Feed conversion ratio [12, 19]: 5.18 ± 0.63 ^bc g/g
Feed intake [12, 19]: 25.1 ± 3.4 ^b g/d
Final body weight [12, 19]: 496 ± 31 ^a g
Total body weight gain [12, 19]: 138 ± 13 ^a g
Daily feed intake compared with the obese control group [12, 18]: did not differ
Feed conversion ratio compared with the obese control group [12, 18]: did not differ much
Relative mRNA concentration, FATP [13]: 0.93 ± 0.76
Relative mRNA concentration, FABP [14, 17]: 0.83 ± 0.29 ^ab
Absolute organ weights: Heart [15]: 1.36 ± 0.12 g
Absolute organ weights: Kidney [15]: 2.75 ± 0.66 g
Absolute organ weights: Liver [15]: 25.0 ± 2.8 ^a g
Relative organ weights: Heart [15]: 2.73 ± 0.15 ^b mg/g body weight
Relative organ weights: Kidney [15]: 5.52 ± 1.17 mg/g body weight
Relative organ weights: Liver [15]: 50.4 ± 4.4 ^a mg/g body weight
Leptin in plasma [16]: 6.09 ± 1.29 ^bc ng/mL
Leptin concentrations in plasma compared with the obese control group [16]: did not differ

SMILES: O=C(O)c1cccnc1 [niacin, pyridine-3-carboxylic acid, reference compound]
Adiponectin in plasma [4]: 134 ± 21 ng/mL
Glucose in plasma [5]: 7.36 ± 0.64 ^b mmol/L
Fasting glucose concentration compared with the obese control group [5]: lower
Lowering of cholesterol in plasma and VLDL/LDL ([9]; conclusions, obese diabetic rats, in words): significant effect on lowering
Cholesterol, HDL [9]: 4.54 ± 0.54 ^a mmol/L
Cholesterol, Plasma [9]: 6.91 ± 1.13 ^b mmol/L
Cholesterol, VLDL + LDL [9]: 2.70 ± 0.27 ^c mmol/L
Triacylglycerols, Plasma [9]: 3.17 ± 0.40 ^d mmol/L
Triacylglycerols, VLDL + LDL [9]: 2.08 ± 0.40 ^c mmol/L
TAG concentration in plasma compared with the niacin+DHA+carnitine group ([9]; in words): lower
TAG concentrations in plasma compared with the control group ([9]; in words): lower
Cholesterol in the VLDL+LDL fraction compared with the obese control group ([9]; in words): lower
TAG concentration in the VLDL+LDL fraction compared with the obese control group ([9]; in words): lower
NEFA in plasma [11]: 2.25 ± 0.46 ^b mmol/L
NEFA concentrations in plasma compared with the obese control group [11]: lower
Daily body weight gain [12, 19]: 4.95 ± 0.73 ^a g
Feed intake [12, 19]: 26.2 ± 2.3 ^ab g/d
Final body weight [12, 19]: 500 ± 43 ^a g
Total body weight gain [12, 19]: 141 ± 19 ^a g
Daily feed intake compared with the obese control group [12, 18]: did not differ
Absolute organ weights: Kidney [15]: 2.57 ± 0.49 g
Leptin in plasma [16]: 6.17 ± 0.71 ^b ng/mL
Leptin concentrations in plasma compared with the obese control group [16]: higher
